The molecules below were run against Insulin-regulated aminopeptidase (Homo sapiens) (assay: Inhibition of recombinant human IRAP using L-AMC as substrate preincubated for 30 mins followed by substrate addition and measured after 1 hr by fluorescence based assay).
`O=C(NO)c1ccc(S(=O)(=O)N2CCCCC2)s1` was tested, and the IC50 was 60.3 µM.
With `O=C1N=C(S)SC1=Cc1ccc(C(=O)O)cc1` the IC50 was 40.9 µM.
`O=C(Cc1ccc(S(=O)(=O)N2CCCCC2)s1)NO` gave an IC50 of 16.3 µM.
`O=C(O)c1cccc(S(=O)(=O)N2CCC(F)CC2)c1` gave an IC50 of 15.1 µM.
Molecule `O=C(O)c1cccc(S(=O)(=O)N2CCCCC2)c1` has an IC50 of 14.4 µM.
Molecule `O=C(O)c1cccc(S(=O)(=O)N2CCCC2)c1` has an IC50 of 88.1 µM.
Work on `CN1C(=O)SC(Cc2ccc(C(=O)O)cc2)C1=O` (configuration not stated) yielded an IC50 of 13.3 µM.

Source: BindingDB's records for PubMed 39369482 (Univ. Lille)
